Key:
Experiment in all cases: relative viability (nuclei count vs DMSO), 5 days (fraction); higher = more cells survive
[1] = compound: C/C(=N\NC(=S)N1CCC1)/C2=CC=CC=N2 + Nc1ncn([C@H]2C[C@H](O)[C@@H](CO)O2)c(=O)n1 [Decitabine] (partner 2 µM)
In short: (§1)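 Lung cancer cell lines, seeded in 1536-well plates, were treated the following day by pin tool with a single drug or with five library-drug doses (not always all listed) in √10 steps on top of a fixed anchor-drug dose. Cells were fixed and nuclei stained in one step after 5 days, and nuclei were counted. Relative viability is the nuclei count for treated wells divided by that for vehicle wells, reported as medians of duplicate plates.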

[2] = compound: C/C(=N\NC(=S)N1CCC1)/C2=CC=CC=N2 + O=C(c1cc(Cc2n[nH]c(=O)c3ccccc23)ccc1F)N1CCN(C(=O)C2CC2)CC1 [Olaparib] (partner 8 µM)
In short: as §1

[3] = compound: C/C(=N\NC(=S)N1CCC1)/C2=CC=CC=N2 + CS(=O)(=O)CCNCc1ccc(-c2ccc3ncnc(Nc4ccc(OCc5cccc(F)c5)c(Cl)c4)c3c2)o1 [Lapatinib] (partner 2 µM)
In short: as §1

[4] = compound: C/C(=N\NC(=S)N1CCC1)/C2=CC=CC=N2 + NC(=O)Nc1cc(-c2cccc(F)c2)sc1C(=O)N[C@H]1CCCNC1 [AZD7762] (partner 0.2 µM)
In short: as §1

Cell Line: NCI-H1944
- relative viability ([1]; first compound 0.05 µM): 0.225
- relative viability ([1]; first compound 0.1581 µM): 0.413
- relative viability ([1]; first compound 0.5 µM): 0.158
- relative viability ([1]; first compound 1.581 µM): 0.116
- relative viability ([1]; first compound 5 µM): 0.143
- relative viability ([2]; first compound 0.05 µM): 0.27
- relative viability ([2]; first compound 0.1581 µM): 0.426
- relative viability ([2]; first compound 0.5 µM): 0.14
- relative viability ([2]; first compound 1.581 µM): 0.136
- relative viability ([2]; first compound 5 µM): 0.138
- relative viability ([3]; first compound 0.05 µM): 0.194
- relative viability ([3]; first compound 0.1581 µM): 0.317
- relative viability ([3]; first compound 0.5 µM): 0.207
- relative viability ([3]; first compound 1.581 µM): 0.144
- relative viability ([3]; first compound 5 µM): 0.163
- relative viability ([4]; first compound 0.05 µM): 0.227
- relative viability ([4]; first compound 0.1581 µM): 0.169
- relative viability ([4]; first compound 0.5 µM): 0.145
- relative viability ([4]; first compound 1.581 µM): 0.102
- relative viability ([4]; first compound 5 µM): 0.129

Cell Line: NCI-H1975
- relative viability ([1]; first compound 0.05 µM): 0.151
- relative viability ([1]; first compound 0.1581 µM): 0.18
- relative viability ([1]; first compound 0.5 µM): 0.154
- relative viability ([1]; first compound 1.581 µM): 0.156
- relative viability ([1]; first compound 5 µM): 0.184
- relative viability ([2]; first compound 0.05 µM): 0.111
- relative viability ([2]; first compound 0.1581 µM): 0.113
- relative viability ([2]; first compound 0.5 µM): 0.118
- relative viability ([2]; first compound 1.581 µM): 0.111
- relative viability ([2]; first compound 5 µM): 0.133
- relative viability ([3]; first compound 0.05 µM): 0.132
- relative viability ([3]; first compound 0.1581 µM): 0.151
- relative viability ([3]; first compound 0.5 µM): 0.147
- relative viability ([3]; first compound 1.581 µM): 0.13
- relative viability ([3]; first compound 5 µM): 0.15
- relative viability ([4]; first compound 0.05 µM): 0.308
- relative viability ([4]; first compound 0.1581 µM): 0.239
- relative viability ([4]; first compound 0.5 µM): 0.225
- relative viability ([4]; first compound 1.581 µM): 0.234
- relative viability ([4]; first compound 5 µM): 0.24

Cell Line: NCI-H1993
- relative viability ([1]; first compound 0.05 µM): 0.42
- relative viability ([1]; first compound 0.1581 µM): 0.497
- relative viability ([1]; first compound 0.5 µM): 0.342
- relative viability ([1]; first compound 1.581 µM): 0.431
- relative viability ([1]; first compound 5 µM): 0.381
- relative viability ([2]; first compound 0.05 µM): 0.418
- relative viability ([2]; first compound 0.1581 µM): 0.426
- relative viability ([2]; first compound 0.5 µM): 0.355
- relative viability ([2]; first compound 1.581 µM): 0.334
- relative viability ([2]; first compound 5 µM): 0.431
- relative viability ([3]; first compound 0.05 µM): 0.59
- relative viability ([3]; first compound 0.1581 µM): 0.634
- relative viability ([3]; first compound 0.5 µM): 0.619
- relative viability ([3]; first compound 1.581 µM): 0.58
- relative viability ([3]; first compound 5 µM): 0.543
- relative viability ([4]; first compound 0.05 µM): 0.302
- relative viability ([4]; first compound 0.1581 µM): 0.372
- relative viability ([4]; first compound 0.5 µM): 0.387
- relative viability ([4]; first compound 1.581 µM): 0.373
- relative viability ([4]; first compound 5 µM): 0.317

Cell Line: NCI-H2085
- relative viability ([1]; first compound 0.05 µM): 0.255
- relative viability ([1]; first compound 0.1581 µM): 0.324
- relative viability ([1]; first compound 0.5 µM): 0.358
- relative viability ([1]; first compound 1.581 µM): 0.309
- relative viability ([1]; first compound 5 µM): 0.376
- relative viability ([2]; first compound 0.05 µM): 0.307
- relative viability ([2]; first compound 0.1581 µM): 0.25
- relative viability ([2]; first compound 0.5 µM): 0.293
- relative viability ([2]; first compound 1.581 µM): 0.281
- relative viability ([2]; first compound 5 µM): 0.278
- relative viability ([3]; first compound 0.05 µM): 0.341
- relative viability ([3]; first compound 0.1581 µM): 0.365
- relative viability ([3]; first compound 0.5 µM): 0.335
- relative viability ([3]; first compound 1.581 µM): 0.271
- relative viability ([3]; first compound 5 µM): 0.325
- relative viability ([4]; first compound 0.05 µM): 0.263
- relative viability ([4]; first compound 0.1581 µM): 0.278
- relative viability ([4]; first compound 0.5 µM): 0.293
- relative viability ([4]; first compound 1.581 µM): 0.223
- relative viability ([4]; first compound 5 µM): 0.271

Cell Line: NCI-H2087
- relative viability ([1]; first compound 0.05 µM): 0.136
- relative viability ([1]; first compound 0.1581 µM): 0.0973
- relative viability ([1]; first compound 0.5 µM): 0.107
- relative viability ([1]; first compound 1.581 µM): 0.103
- relative viability ([1]; first compound 5 µM): 0.0802
- relative viability ([2]; first compound 0.05 µM): 0.123
- relative viability ([2]; first compound 0.1581 µM): 0.113
- relative viability ([2]; first compound 0.5 µM): 0.138
- relative viability ([2]; first compound 1.581 µM): 0.144
- relative viability ([2]; first compound 5 µM): 0.0767
- relative viability ([3]; first compound 0.05 µM): 0.196
- relative viability ([3]; first compound 0.1581 µM): 0.268
- relative viability ([3]; first compound 0.5 µM): 0.224
- relative viability ([3]; first compound 1.581 µM): 0.195
- relative viability ([3]; first compound 5 µM): 0.143
- relative viability ([4]; first compound 0.05 µM): 0.193
- relative viability ([4]; first compound 0.1581 µM): 0.16
- relative viability ([4]; first compound 0.5 µM): 0.249
- relative viability ([4]; first compound 1.581 µM): 0.118
- relative viability ([4]; first compound 5 µM): 0.15

Cell Line: NCI-H2126
- relative viability ([1]; first compound 0.05 µM): 0.292
- relative viability ([1]; first compound 0.1581 µM): 0.599
- relative viability ([1]; first compound 0.5 µM): 0.222
- relative viability ([1]; first compound 1.581 µM): 0.226
- relative viability ([1]; first compound 5 µM): 0.247
- relative viability ([2]; first compound 0.05 µM): 0.344
- relative viability ([2]; first compound 0.1581 µM): 0.889
- relative viability ([2]; first compound 0.5 µM): 0.186
- relative viability ([2]; first compound 1.581 µM): 0.191
- relative viability ([2]; first compound 5 µM): 0.17
- relative viability ([3]; first compound 0.05 µM): 0.242
- relative viability ([3]; first compound 0.1581 µM): 0.272
- relative viability ([3]; first compound 0.5 µM): 0.249
- relative viability ([3]; first compound 1.581 µM): 0.236
- relative viability ([3]; first compound 5 µM): 0.241
- relative viability ([4]; first compound 0.05 µM): 0.2
- relative viability ([4]; first compound 0.1581 µM): 0.19
- relative viability ([4]; first compound 0.5 µM): 0.214
- relative viability ([4]; first compound 1.581 µM): 0.189
- relative viability ([4]; first compound 5 µM): 0.157

Cell Line: NCI-H2170
- relative viability ([1]; first compound 0.05 µM): 0.374
- relative viability ([1]; first compound 0.1581 µM): 0.434
- relative viability ([1]; first compound 0.5 µM): 0.22
- relative viability ([1]; first compound 1.581 µM): 0.199
- relative viability ([1]; first compound 5 µM): 0.14
- relative viability ([2]; first compound 0.05 µM): 0.487
- relative viability ([2]; first compound 0.1581 µM): 0.575
- relative viability ([2]; first compound 0.5 µM): 0.161
- relative viability ([2]; first compound 1.581 µM): 0.124
- relative viability ([2]; first compound 5 µM): 0.124
- relative viability ([3]; first compound 0.05 µM): 0.24
- relative viability ([3]; first compound 0.1581 µM): 0.2
- relative viability ([3]; first compound 0.5 µM): 0.203
- relative viability ([3]; first compound 1.581 µM): 0.192
- relative viability ([3]; first compound 5 µM): 0.188
- relative viability ([4]; first compound 0.05 µM): 0.298
- relative viability ([4]; first compound 0.1581 µM): 0.178
- relative viability ([4]; first compound 0.5 µM): 0.153
- relative viability ([4]; first compound 1.581 µM): 0.126
- relative viability ([4]; first compound 5 µM): 0.1

Cell Line: NCI-H2347
- relative viability ([1]; first compound 0.05 µM): 0.363
- relative viability ([1]; first compound 0.1581 µM): 0.335
- relative viability ([1]; first compound 0.5 µM): 0.34
- relative viability ([1]; first compound 1.581 µM): 0.349
- relative viability ([1]; first compound 5 µM): 0.367
- relative viability ([2]; first compound 0.05 µM): 0.334
- relative viability ([2]; first compound 0.1581 µM): 0.294
- relative viability ([2]; first compound 0.5 µM): 0.298
- relative viability ([2]; first compound 1.581 µM): 0.274
- relative viability ([2]; first compound 5 µM): 0.28
- relative viability ([3]; first compound 0.05 µM): 0.401
- relative viability ([3]; first compound 0.1581 µM): 0.394
- relative viability ([3]; first compound 0.5 µM): 0.324
- relative viability ([3]; first compound 1.581 µM): 0.294
- relative viability ([3]; first compound 5 µM): 0.541
- relative viability ([4]; first compound 0.05 µM): 0.192
- relative viability ([4]; first compound 0.1581 µM): 0.235
- relative viability ([4]; first compound 0.5 µM): 0.218
- relative viability ([4]; first compound 1.581 µM): 0.198
- relative viability ([4]; first compound 5 µM): 0.244

Cell Line: NCI-H2405
- relative viability ([1]; first compound 0.05 µM): 0.284
- relative viability ([1]; first compound 0.1581 µM): 0.246
- relative viability ([1]; first compound 0.5 µM): 0.24
- relative viability ([1]; first compound 1.581 µM): 0.239
- relative viability ([1]; first compound 5 µM): 0.246
- relative viability ([2]; first compound 0.05 µM): 0.259
- relative viability ([2]; first compound 0.1581 µM): 0.272
- relative viability ([2]; first compound 0.5 µM): 0.268
- relative viability ([2]; first compound 1.581 µM): 0.252
- relative viability ([2]; first compound 5 µM): 0.208
- relative viability ([3]; first compound 0.05 µM): 0.251
- relative viability ([3]; first compound 0.1581 µM): 0.236
- relative viability ([3]; first compound 0.5 µM): 0.263
- relative viability ([3]; first compound 1.581 µM): 0.25
- relative viability ([3]; first compound 5 µM): 0.281
- relative viability ([4]; first compound 0.05 µM): 0.215
- relative viability ([4]; first compound 0.1581 µM): 0.245
- relative viability ([4]; first compound 0.5 µM): 0.253
- relative viability ([4]; first compound 1.581 µM): 0.186
- relative viability ([4]; first compound 5 µM): 0.23
